Measurements reported in PubChem BioAssay (NCI).
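96-well plates; 48 h exposure; 5 concentrations. Endpoints by linear interpolation between flanking doses. Not reached: highest tested concentration assigned. TGI marks complete inhibition of growth.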

Tests used:
Test in all cases: NCI tumour cell line growth inhibition, 48 h
786-0 renal = test system: 786-0 renal
A498 renal = test system: A498 renal
A549 NSCLC = test system: A549 NSCLC
ACHN renal = test system: ACHN renal
CAKI-1 renal = test system: CAKI-1 renal
CCRF-CEM leukemia = test system: CCRF-CEM leukemia
COLO 205 colon = test system: COLO 205 colon
DLD-1 colon = test system: DLD-1 colon
DMS 114 small cell lung = test system: DMS 114 small cell lung
EKVX NSCLC = test system: EKVX NSCLC
HCC-2998 colon = test system: HCC-2998 colon
HCT-116 colon = test system: HCT-116 colon
HCT-15 colon = test system: HCT-15 colon
HL-60(TB) leukemia = test system: HL-60(TB) leukemia
HOP-18 NSCLC = test system: HOP-18 NSCLC
HOP-62 NSCLC = test system: HOP-62 NSCLC
HT29 colon = test system: HT29 colon
IGROV1 ovarian = test system: IGROV1 ovarian
K-562 leukemia = test system: K-562 leukemia
KM12 colon = test system: KM12 colon
KM20L2 colon = test system: KM20L2 colon
LOX IMVI melanoma = test system: LOX IMVI melanoma
LXFL 529 NSCLC = test system: LXFL 529 NSCLC
M14 melanoma = test system: M14 melanoma
M19-MEL melanoma = test system: M19-MEL melanoma
MALME-3M melanoma = test system: MALME-3M melanoma
MOLT-4 leukemia = test system: MOLT-4 leukemia
NCI-H226 lung = test system: NCI-H226 lung
NCI-H23 lung = test system: NCI-H23 lung
NCI-H460 lung = test system: NCI-H460 lung
NCI-H522 lung = test system: NCI-H522 lung
OVCAR-3 ovarian = test system: OVCAR-3 ovarian
OVCAR-4 ovarian = test system: OVCAR-4 ovarian
OVCAR-5 ovarian = test system: OVCAR-5 ovarian
OVCAR-8 ovarian = test system: OVCAR-8 ovarian
RPMI-8226 leukemia = test system: RPMI-8226 leukemia
RXF 393 renal = test system: RXF 393 renal
RXF-631 renal = test system: RXF-631 renal
SF-268 CNS = test system: SF-268 CNS
SF-295 CNS = test system: SF-295 CNS
SF-539 CNS = test system: SF-539 CNS
SK-MEL-2 melanoma = test system: SK-MEL-2 melanoma
SK-MEL-28 melanoma = test system: SK-MEL-28 melanoma
SK-MEL-5 melanoma = test system: SK-MEL-5 melanoma
SK-OV-3 ovarian = test system: SK-OV-3 ovarian
SN12C renal = test system: SN12C renal
SNB-19 CNS = test system: SNB-19 CNS
SNB-75 CNS = test system: SNB-75 CNS
SNB-78 CNS = test system: SNB-78 CNS
SR leukemia = test system: SR leukemia
SW-620 colon = test system: SW-620 colon
TK-10 renal = test system: TK-10 renal
U251 CNS = test system: U251 CNS
UACC-257 melanoma = test system: UACC-257 melanoma
UACC-62 melanoma = test system: UACC-62 melanoma
UO-31 renal = test system: UO-31 renal
XF 498 CNS = test system: XF 498 CNS
HOP-92 NSCLC = test system: HOP-92 NSCLC

## CC1(C)CC(=O)C(C(=O)C(=O)NC2=C(Cl)C(=O)c3ccccc3C2=O)C(=O)C1
786-0 renal
  TGI: > 100 µM
A498 renal
  TGI: > 100 µM
A549 NSCLC
  TGI: > 100 µM
ACHN renal
  TGI: > 100 µM
CAKI-1 renal
  TGI: > 100 µM
CCRF-CEM leukemia
  TGI: > 100 µM
COLO 205 colon
  TGI: > 100 µM
DLD-1 colon
  TGI: > 100 µM
DMS 114 small cell lung
  TGI: > 100 µM
EKVX NSCLC
  TGI: > 100 µM
HCC-2998 colon
  TGI: > 100 µM
HCT-116 colon
  TGI: > 100 µM
HCT-15 colon
  TGI: > 100 µM
HL-60(TB) leukemia
  TGI: 47.2 µM
HOP-18 NSCLC
  TGI: > 100 µM
HOP-62 NSCLC
  TGI: > 100 µM
HT29 colon
  TGI: > 100 µM
IGROV1 ovarian
  TGI: > 100 µM
K-562 leukemia
  TGI: > 100 µM
KM12 colon
  TGI: > 100 µM
KM20L2 colon
  TGI: > 100 µM
LOX IMVI melanoma
  TGI: > 100 µM
LXFL 529 NSCLC
  TGI: > 100 µM
M14 melanoma
  TGI: > 100 µM
M19-MEL melanoma
  TGI: > 100 µM
MALME-3M melanoma
  TGI: > 100 µM
MOLT-4 leukemia
  TGI: 94.4 µM
NCI-H226 lung
  TGI: > 100 µM
NCI-H23 lung
  TGI: > 100 µM
NCI-H460 lung
  TGI: > 100 µM
NCI-H522 lung
  TGI: 91.6 µM
OVCAR-3 ovarian
  TGI: > 100 µM
OVCAR-4 ovarian
  TGI: > 100 µM
OVCAR-5 ovarian
  TGI: > 100 µM
OVCAR-8 ovarian
  TGI: > 100 µM
RPMI-8226 leukemia
  TGI: > 100 µM
RXF 393 renal
  TGI: > 100 µM
RXF-631 renal
  TGI: > 100 µM
SF-268 CNS
  TGI: > 100 µM
SF-295 CNS
  TGI: > 100 µM
SF-539 CNS
  TGI: > 100 µM
SK-MEL-2 melanoma
  TGI: > 100 µM
SK-MEL-28 melanoma
  TGI: > 100 µM
SK-MEL-5 melanoma
  TGI: > 100 µM
SK-OV-3 ovarian
  TGI: > 100 µM
SN12C renal
  TGI: > 100 µM
SNB-19 CNS
  TGI: > 100 µM
SNB-75 CNS
  TGI: > 100 µM
SNB-78 CNS
  TGI: > 100 µM
SR leukemia
  TGI: > 100 µM
SW-620 colon
  TGI: > 100 µM
TK-10 renal
  TGI: > 100 µM
U251 CNS
  TGI: > 100 µM
UACC-257 melanoma
  TGI: > 100 µM
UACC-62 melanoma
  TGI: > 100 µM
UO-31 renal
  TGI: > 100 µM
XF 498 CNS
  TGI: > 100 µM

## COC(=O)C12C3C4C1C1C2C3C41C(=O)O (stereo not drawn)
786-0 renal
  TGI: > 100 µM
A498 renal
  TGI: > 100 µM
A549 NSCLC
  TGI: > 100 µM
ACHN renal
  TGI: > 100 µM
CAKI-1 renal
  TGI: > 100 µM
CCRF-CEM leukemia
  TGI: > 100 µM
COLO 205 colon
  TGI: > 100 µM
DLD-1 colon
  TGI: > 100 µM
DMS 114 small cell lung
  TGI: > 100 µM
EKVX NSCLC
  TGI: > 100 µM
HCC-2998 colon
  TGI: > 100 µM
HCT-15 colon
  TGI: > 100 µM
HL-60(TB) leukemia
  TGI: > 100 µM
HOP-18 NSCLC
  TGI: > 100 µM
HOP-62 NSCLC
  TGI: > 100 µM
HOP-92 NSCLC
  TGI: > 100 µM
HT29 colon
  TGI: > 100 µM
IGROV1 ovarian
  TGI: > 100 µM
K-562 leukemia
  TGI: > 100 µM
KM20L2 colon
  TGI: > 100 µM
LXFL 529 NSCLC
  TGI: > 100 µM
M14 melanoma
  TGI: > 100 µM
M19-MEL melanoma
  TGI: > 100 µM
MALME-3M melanoma
  TGI: > 100 µM
MOLT-4 leukemia
  TGI: > 100 µM
NCI-H226 lung
  TGI: > 100 µM
NCI-H23 lung
  TGI: > 100 µM
NCI-H460 lung
  TGI: > 100 µM
OVCAR-3 ovarian
  TGI: > 100 µM
OVCAR-4 ovarian
  TGI: > 100 µM
OVCAR-5 ovarian
  TGI: > 100 µM
OVCAR-8 ovarian
  TGI: > 100 µM
RPMI-8226 leukemia
  TGI: > 100 µM
RXF 393 renal
  TGI: > 100 µM
RXF-631 renal
  TGI: > 100 µM
SF-268 CNS
  TGI: > 100 µM
SF-295 CNS
  TGI: > 100 µM
SF-539 CNS
  TGI: > 100 µM
SK-MEL-28 melanoma
  TGI: > 100 µM
SK-MEL-5 melanoma
  TGI: > 100 µM
SK-OV-3 ovarian
  TGI: > 100 µM
SN12C renal
  TGI: > 100 µM
SNB-19 CNS
  TGI: > 100 µM
SNB-78 CNS
  TGI: > 100 µM
SW-620 colon
  TGI: > 100 µM
TK-10 renal
  TGI: > 100 µM
U251 CNS
  TGI: > 100 µM
UACC-257 melanoma
  TGI: > 100 µM
UACC-62 melanoma
  TGI: > 100 µM
UO-31 renal
  TGI: > 100 µM
XF 498 CNS
  TGI: > 100 µM
